In data set [1] the test system is TLR7 and TLR9. Nature of the data set: Type I IFN-regulated genes in spleens of lupus-prone mice (Taqman). The note with it: (NZBxNZW)F1 and TLR7.Tg.6, IRS 100 μg s.c. every 3 days for 10 days. It counts as in vivo, mouse. How it is done: (A) (NZBxNZW)F1 mice were treated as described in FIG. 16 but when mice received IRS, different doses of GC were used (in mg per mouse here) (B) (NZBxNZW)F1 and (C) TLR7.Tg.6 mice were left untreated or treated with IRS (100 μg/mice s.c) every 3 days for 10 days and spleens were harvested 18 hr after the last IRS injection. RNA was prepared from the spleens of the animals and the levels of type I IFN-regulated genes were measured by quantitative analysis (Taqman). Averages±standard error of the mean for n=6-10 mice per group.
PCR reactions were performed as described previously (Barrat et al., 2005). In brief, RNA was extracted from collagenase D-treated splenocyte suspensions with Qiagen RNA and cDNA was generated with SuperScript First-Strand Synthesis System (Invitrogen). ECT was threshold cycle (CT) values for each gene were normalized to the housekeeping genes ubiquitin or β-actin using the formula Eq. 1.8(HSKGENE) (100,000), where HSK is the mean CT of triplicate housekeeping gene runs, GENE is the mean CT of duplicate runs of the gene of interest, and 100,000 is arbitrarily chosen as a factor to bring all values above 0.
(In general: Real-time PCR tracks product formation cycle by cycle.)

The test system of a further data set is PDC. The note with it: in vitro, with GC.
For data set [2], the system named is TLR7 and TLR9. Briefly: Tape stripping skin lesions in lupus prone (NZBxNZW)F1 mice. Type of data set: in vivo. On the set-up: key to Dermal inflammation: graded on a scale of 1 to 3. The note with it: for Dermal inflammation / Epidermis thickness / Intraepithelial inflammation / Panniculum inflammation / Ulceration: histological score. How it is done:
SEQ ID NO:42 (IRS) was used starting the day of the tape stripping during the entire course of the experiments (FIGS. 29A,D,E) or starting at 4 days post injury when the disease is already established (FIGS. 30A,D,E). In both cases SEQ ID NO:42 (IRS) (100 μg; s. c.) was administered twice a week. Also described is the timing of PDC depletion experiments described in FIGS. 29A,F,G. Depleting antibody to PDC anti-120G8 (250 μg; i.p.) were given at day −2 and day 0, eight hours before tape stripping and then given twice a week for the entire duration of the experiment. Experiments were stopped in between 15-23 days after initial tape stripping depending on the progression of the lesions in the untreated groups.
C57BL/6 and 129 mice were purchased from Charles River Laboratories. (NZBxNZW)F1 female mice were purchased from Jackson Laboratories and used at 18-22 weeks of age. MyD88/KO and TLR9/KO mouse colonies were maintained at Simonsen Laboratories and used with age matched C57BL/6 wild type controls at 8-12 weeks of age. Tape stripping was performed after shaving the dorsal area (3×3 cm) using 10 strokes with duct tape. IRS was administered just before tape stripping SC at a distant site. Alternatively, in (NZBxNZW)F1 mice, IRS was administered long term. In certain experiments PDC and neutrophils were depleted with 250 μg of antibody given IP at day −2 and day 0, eight hours before tape stripping. Anti-120G8 (Imgenex) was used for depletion of PDC (Asselin-Paturel et al., 2003), and anti-GR1-LY6G (clone 1A8; Biolegend) was used for depletion of neutrophils (Daley et al., 2008). […] In experiments where PDC were depleted, long term 120G8 depleting antibody was administered. Experiments in (NZBxNZW)F1 were terminated between 15-23 days after initial tape stripping, depending on the progression of the lesions in the untreated groups in each experiment. Percentage of area with open lesions in (NZBxNZW)F1 and normal mice was evaluated with Nikon software NIS-elements.
The biopsy specimens were fixed in formalin and embedded in paraffin. Sections were stained with hematoxylin-eosin. Multiple skin sections of 12-30 mice per group were evaluated in a blinded fashion. The following histological features were assessed and graded on a scale of 1 to 3: i) epidermis thickness ii) degree of ulceration iii) intraepithelial inflammation, iv) dermal inflammation, and v) panniculum inflammation. Histological grading was assigned as follows: 0, normal skin architecture, few dermal leukocytes and regular adnexa; 1, mild inflammation, slight epidermal hyperplasia and signs of dermal fibroblast proliferation; 2, moderate inflammation, noticeable epidermal hyperplasia (two- to four-fold increase in epithelial thickness) with hyperkeratosis, significant leukocyte/neutrophil-granulocyte dermal infiltrate with few macrophages, moderate fibrosclerosis of the dermis, reduction in the number of adnexa, slight degenerative changes of the hypodermic adipose tissue; 3, severe inflammation, marked epidermal hyperplasia (>four-fold increase in epithelial thickness) with hyperkeratosis, formation of keratin-filled craters and cysts, diffuse discontinuity of the epidermal layer (ulceration), extensive dermal infiltrate with abundant neutrophils and macrophages, pronounced dermal fibrosclerosis, vanishing of adnexa and evident degenerative changes of the hypodermic adipose tissue. The different parameters were scored separately and summed to obtained a total disease score (Table 22-1). Statistical significance among groups was calculated with a Mann-Whitney U-test.

“Also recorded” adds a separate entry of the source.

For “5′-TGCTCCTGGAGGGGTTGT-3′ (DNA, backbone not given here) [SEQ ID NO:42]”, the “expression of IFN-regulated genes” value in the data set with TLR7 and TLR9 [1] is reported as “reduced the expression of IFN-regulated genes but not TNF-α”. In addition, the “GC sensitivity of TLR7/9-stimulated PDC” value with PDC is reported as “restored GC sensitivity to PDC”. The “induction of IFN-regulated and pro-inflammatory genes” value in the data set with TLR7 and TLR9 [2] ((NZBxNZW)F1, single injection prior to tape stripping, 24 hr) was “efficiently inhibited this gene induction; also recorded: can be inhibited”. Also, in the data set on TLR7 and TLR9 [2] (IRS (pre-injury)), the “Total Disease Score” value stood at 3.2 ± 0.5, the Dermal inflammation worked out at 1.3 ± 0.2, the Epidermis thickness came to 0.7 ± 0.2 and the Intraepithelial inflammation is given as 0.2 ± 0.2. In the data set on TLR7 and TLR9 [2] (IRS (pre-injury)), this substance returned a Panniculum inflammation of 0.8 ± 0.1 and a Ulceration of 0.0 ± 0.0. Besides, in the data set on TLR7 and TLR9 [2] (IRS (therapeutic)), the “Total Disease Score” value amounted to 3.5 ± 0.4, the Dermal inflammation was determined as 1.2 ± 0.1, the Epidermis thickness was 1.0 ± 0.2 and the Intraepithelial inflammation came to 0.2 ± 0.2. In the data set on TLR7 and TLR9 [2] (IRS (therapeutic)), the Panniculum inflammation came out at 1.0 ± 0.0 and the Ulceration stood at 0.2 ± 0.1. For the same substance, in the data set on TLR7 and TLR9 [2] (IRS before skin injury and for the duration, day 15-23), the “lesions, share of the stripped area” value is given as “less than 15%”. The “surface still covered by open lesions” value in the data set with TLR7 and TLR9 [2] (IRS beginning at day 4, day 15-23) worked out at 10%. In addition, the “CLE-like phenotype / healing of established lesions” value in the data set with TLR7 and TLR9 [2] (therapeutic treatment from day 4) is recorded as “accelerated healing; also recorded: significantly ameliorated CLE-like phenotype”. In addition, the “disease onset (skin appearance, histology, gene signatures)” value with TLR7 and TLR9 [2] (treatment from the day of tape stripping) is reported as “able to prevent disease onset”.

These data come from patent publication US8940310B2, “Methods of treatment using TLR7 and/or TLR9 inhibitors” (Dynavax Technologies Corporation, priority 2010, dated 2015).
